Measurements reported in patent US20240299559A1, “COMPOUNDS THAT MEDIATE PROTEIN DEGRADATION AND METHODS OF USE THEREOF” (Monte Rosa Therapeutics, Inc., priority 2021, published 2024).

Assays:
[1] = target: T1, CDK2 (Homo sapiens, UniProt P24941); test: CDK2 HiBiT assay (degradation, Dmax); format: cell-based; conditions: HEK293 clonal lines with CRISPR KI HiBiT tag on CDK2, stably expressing LgBiT; 24 hours incubation
T1 construct: HEK293 clonal lines with CRISPR KI HiBiT tag on CDK2 proteins; host or cells: HEK293 clonal line with CRISPR knock-in HiBiT on CDK2, stably expressing LgBiT
How it was run: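 HEK293 with endogenous HiBiT-tagged CDK2 and stable LgBiT, 5000 cells/well, treated 24 h at 37 °C (compound source plate 30 μM). Luminescence after HiBiT lysis reagent 15 min, normalized to plate controls; 3-parameter logistic fit (Hill slope 1) gives EC50 and Dmax.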

[2] = target: CRBN-DDB1 (Homo sapiens, UniProt Q96SW2); test: Compound binding to CRBN by HTRF assay; conditions: CRBN-DDB1 2.5 nM, Cy5-Thalidomide 100 nM probe; Ki from geometric mean of IC50 by Cheng-Prustoff transformation
CRBN-DDB1, sequence (Q96SW2 whole entry): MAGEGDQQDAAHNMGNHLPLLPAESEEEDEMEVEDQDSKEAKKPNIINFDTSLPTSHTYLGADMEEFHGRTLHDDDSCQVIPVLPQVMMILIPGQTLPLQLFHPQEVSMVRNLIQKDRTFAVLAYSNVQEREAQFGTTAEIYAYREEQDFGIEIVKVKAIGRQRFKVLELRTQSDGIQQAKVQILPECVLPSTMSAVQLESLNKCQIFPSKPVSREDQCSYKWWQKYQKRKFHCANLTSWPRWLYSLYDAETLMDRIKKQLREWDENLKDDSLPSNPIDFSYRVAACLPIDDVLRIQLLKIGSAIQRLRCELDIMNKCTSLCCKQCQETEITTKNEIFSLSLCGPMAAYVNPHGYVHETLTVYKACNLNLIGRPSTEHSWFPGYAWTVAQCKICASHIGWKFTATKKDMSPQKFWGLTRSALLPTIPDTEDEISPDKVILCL
CRBN-DDB1, sequence (Q16531 whole entry partner): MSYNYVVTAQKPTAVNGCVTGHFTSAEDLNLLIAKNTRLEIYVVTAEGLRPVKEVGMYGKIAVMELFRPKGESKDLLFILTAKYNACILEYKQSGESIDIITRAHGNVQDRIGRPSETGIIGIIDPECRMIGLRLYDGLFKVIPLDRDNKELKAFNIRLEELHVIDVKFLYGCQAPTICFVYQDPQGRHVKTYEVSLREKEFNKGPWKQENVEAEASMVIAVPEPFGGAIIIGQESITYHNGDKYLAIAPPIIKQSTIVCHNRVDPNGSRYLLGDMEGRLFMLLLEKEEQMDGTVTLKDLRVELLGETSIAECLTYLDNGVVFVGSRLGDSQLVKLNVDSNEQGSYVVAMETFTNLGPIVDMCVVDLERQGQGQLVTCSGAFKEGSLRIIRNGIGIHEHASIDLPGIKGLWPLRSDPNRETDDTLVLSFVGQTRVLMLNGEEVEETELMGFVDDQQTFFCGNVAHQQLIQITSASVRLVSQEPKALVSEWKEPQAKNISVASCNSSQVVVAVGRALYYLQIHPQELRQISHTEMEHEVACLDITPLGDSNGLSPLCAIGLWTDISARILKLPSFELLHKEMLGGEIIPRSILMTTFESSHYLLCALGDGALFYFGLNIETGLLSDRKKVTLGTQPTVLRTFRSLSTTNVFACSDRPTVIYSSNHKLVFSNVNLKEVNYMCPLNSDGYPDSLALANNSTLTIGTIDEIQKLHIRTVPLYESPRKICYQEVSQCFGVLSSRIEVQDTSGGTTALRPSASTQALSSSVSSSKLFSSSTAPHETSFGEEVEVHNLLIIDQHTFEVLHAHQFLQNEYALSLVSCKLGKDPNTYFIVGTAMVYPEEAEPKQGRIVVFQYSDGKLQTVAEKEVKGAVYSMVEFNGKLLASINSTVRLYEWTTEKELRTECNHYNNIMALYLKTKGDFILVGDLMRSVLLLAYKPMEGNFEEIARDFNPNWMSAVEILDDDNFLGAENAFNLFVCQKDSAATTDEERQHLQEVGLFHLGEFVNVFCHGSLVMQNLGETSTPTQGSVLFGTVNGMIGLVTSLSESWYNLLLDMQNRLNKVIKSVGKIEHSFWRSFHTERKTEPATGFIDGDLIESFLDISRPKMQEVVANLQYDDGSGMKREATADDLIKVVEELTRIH
How it was run: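 HTRF competition used 2.5 nM His-tagged CRBN-DDB1, anti-His terbium cryptate and 100 nM Cy5-thalidomide probe in 20 mM HEPES, 20 mM NaCl, 0.2 mM TCEP, 0.2 mM EDTA, 0.005% Tween20. Compounds ran as 10-point 1:3 series for 30 min at ambient temperature, with the 665/620 nm signal normalized to lenalidomide and DMSO controls. Ki came from geometric-mean IC50 by Cheng-Prusoff.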

`CSc1ccc(COC(=O)NCc2ccc3c(c2)C(=O)N(C2CCC(=O)NC2=O)C3)cc1Cl` (stereo not drawn) [Compound 49, [3-chloro-4-(methylsulfanyl)phenyl]methyl N-{[2-(2,6-dioxopiperidin-3-yl)-3-oxo-2,3-dihydro-1H-isoindol-5-yl]methyl}carbamate] gave a Dmax [1] of 10 to 50% and a Ki [2] of no more than 100 nM.
`CC(NC(=O)OCc1ccc(OC2CCOCC2)nc1)c1ccc2c(c1)C(=O)N(C1CCC(=O)NC1=O)C2` (stereo not drawn) [Compound 16, (6-((tetrahydro-2H-pyran-4-yl)oxy)pyridin-3-yl)methyl (1-(2-(2,6-dioxopiperidin-3-yl)-3-oxoisoindolin-5-yl)ethyl)carbamate] was tested, and the Dmax [1] was 10 to 50% and the Ki [2] was 100 to 1000 nM.
With `O=C1CCC(N2Cc3ccc(CNC(=O)OCc4cccc(-c5ccccc5)c4)cc3C2=O)C(=O)N1` (stereo not drawn) [Compound 6, [1,1′-biphenyl]-3-ylmethyl ((2-(2,6-dioxopiperidin-3-yl)-3-oxoisoindolin-5-yl)methyl)carbamate] the Dmax [1] was 10 to 50% and the Ki [2] was no more than 100 nM.
Molecule `O=C1CCC(N2Cc3ccc(CNC(=O)OCc4ccc(Cl)cc4)cc3C2=O)C(=O)N1` (stereo not drawn) [Compound 24, (4-chlorophenyl)methyl N-{[2-(2,6-dioxopiperidin-3-yl)-3-oxo-2,3-dihydro-1H-isoindol-5-yl]methyl}carbamate] has a Dmax [1] of no more than 10% and a Ki [2] of no more than 100 nM.
Molecule `CCOc1ccc(COC(=O)NCc2ccc3c(c2)C(=O)N(C2CCC(=O)NC2=O)C3)c(C)c1` (stereo not drawn) [Compound 41, (4-ethoxy-2-methylphenyl)methyl N-{[2-(2,6-dioxopiperidin-3-yl)-3-oxo-2,3-dihydro-1H-isoindol-5-yl]methyl}carbamate] has a Dmax [1] of 10 to 50% and a Ki [2] of 100 to 1000 nM.
Molecule `O=C1CCC(N2Cc3ccc(CNC(=O)OCc4cccc(C(F)(F)F)c4)cc3C2=O)C(=O)N1` (stereo not drawn) [Compound 31, [3-(trifluoromethyl)phenyl]methyl N-{[2-(2,6-dioxopiperidin-3-yl)-3-oxo-2,3-dihydro-1H-isoindol-5-yl]methyl}carbamate] has a Dmax [1] of 10 to 50% and a Ki [2] of no more than 100 nM.
`CC(C)COc1ccc(COC(=O)NCc2ccc3c(c2)C(=O)N(C2CCC(=O)NC2=O)C3)cc1` (stereo not drawn) [Compound 46, [4-(2-methylpropoxy)phenyl]methyl N-{[2-(2,6-dioxopiperidin-3-yl)-3-oxo-2,3-dihydro-1H-isoindol-5-yl]methyl}carbamate] showed a Dmax [1] of 10 to 50% and a Ki [2] of 100 to 1000 nM.
`Cc1ccc(-c2cccc(COC(=O)NCc3ccc4c(c3)C(=O)N(C3CCC(=O)NC3=O)C4)c2)cc1` (stereo not drawn) [Compound 7, (4′-methyl-[1,1′-biphenyl]-3-yl)methyl ((2-(2,6-dioxopiperidin-3-yl)-3-oxoisoindolin-5-yl)methyl)carbamate] gave a Dmax [1] of 10 to 50% and a Ki [2] of 100 to 1000 nM.
`COc1ccc2cc(COC(=O)NCc3ccc4c(c3)C(=O)N(C3CCC(=O)NC3=O)C4)ccc2c1` (stereo not drawn) [Compound 28, (6-methoxynaphthalen-2-yl)methyl N-{[2-(2,6-dioxopiperidin-3-yl)-3-oxo-2,3-dihydro-1H-isoindol-5-yl]methyl}carbamate] showed a Dmax [1] of no more than 10% and a Ki [2] of 100 to 1000 nM.
